In US9279010B2, “Treatment of inflammatory bowel diseases with mammal beta defensins” (Defensin Therapeutics ApS, priority 2008, dated 2016):
Marks after values point to notes of the source that are not given here.

Experiments:
[1] = tested on: Dextran Sodium Sulphate (DSS)-induced colitis; assay: 10-Day DSS-induced colitis model in the mouse (Example 2): Disease Activity Index and colon histology score; type: in vivo, mouse (male C57BL/6); design: key to DAI score: DAI score from stool, bleeding, weight loss; daily maximum 12; details: for DAI score: 1 mg/kg p.o. daily
Source text: The aim of the following study was to determine the anti-inflammatory activity of human beta defensin 2 in an acute (10-days) model of inflammatory bowel disease (colitis) induced by oral dextran sodium sulphate (DSS) administration in the mouse.
Animals were divided into 5 experimental groups.
Colitis was induced in mice by supplementing their drinking water with DSS 2% for 7 days.
On Day 1 all mice were weighed and marked according to their experimental groups. The drinking bottle of each cage was filled with the DSS solution, making sure all bottle lids were mounted properly and that none were congested.
On Day 3 any remaining solution in the bottles was emptied and refilled with fresh DSS solution. This procedure was repeated again on Day 5.
On Day 8 any remaining solution was discarded and replaced with autoclaved water.
Animals were sacrificed 2 days later on Day 10.
Daily clinical assessment of DSS-treated animals was carried out, with the calculation of a validated clinical Disease Activity Index (DAI) ranging from 0 to 4 according to the following parameters: stool consistency, presence or absence of rectal bleeding and weight loss:
Bodyweight loss was calculated as the percent difference between the original bodyweight (Day 1) and the actual bodyweight on each experimental day (2-10).
The appearance of diarrhoea is defined as mucus/faecal material adherent to anal fur. Rectal bleeding is defined as diarrhoea containing visible blood/mucus or gross rectal bleeding. The maximum score of the DAI each day is 12.
Their colons were removed and their length and weight measured after exclusion of the caecum.
Two sections (proximal and distal) of colon were taken from each animal and preserved in neutral buffered formalin for subsequent histological analysis (haematoxylin and eosin staining) according to the following scoring system:
Two sections (proximal and distal) of colon were taken from each animal, processed for histological analysis (haematoxylin and eosin staining) and scored by a blind observer according to the histological scoring system described above.
The statistical significance of the results was evaluated using the statistics program Graphpad Instat 3. The difference between groups for disease activity index and histological score was evaluated by Kruskal-Wallis test for unpaired data plus post-test Dunn to allow for multiple comparisons. A value of p<0.05 was taken as significant.

TNF-α = assay: Determination of TNF-alpha concentration in colonic tissue samples by ELISA (Example 2); type: in vivo, mouse (male C57BL/6); details: 1 mg/kg p.o. daily for 10 days
Method: An additional sample of colon was obtained from each animal and homogenised in PBS (100 mg tissue/ml PBS) containing 1% bovine serum albumin (BSA) and a protease inhibitor cocktail (1 ml/20 g tissue). The homogenate was then be centrifuged at 1400 rpm for 10 min and the supernatant stored at −20° C. for subsequent determination of TNF-α concentration by specific enzyme immunoassay (ELISA).
[…]

[2] = tested on: Dextran Sodium Sulphate (DSS)-induced colitis; assay: 10-Day DSS-induced colitis model in the mouse (Example 3): Disease Activity Index and colon histology score; type: in vivo
Method: Example 3 was carried out essentially as described in Example 2. The differences are indicated below.
Animals were divided into 9 experimental groups. […]
Methylprednisolone was given orally at a dose of 1 mg/kg (group H) and 10 mg/kg (group J) in a dosing volume of 5 ml/kg body weight, once daily for 10 consecutive days.
Two sections (proximal and distal) of colon were taken from each animal, processed for histological analysis (haematoxylin and eosin staining), and scored by a blind observer according to the scoring system described above.
The statistical significance of the results was evaluated using the statistics program Graphpad Instat 3. The difference between groups for disease activity index and histological score was evaluated by Kruskal-Wallis test for unpaired data+post-test of Dunn for multiple comparisons. A value of p<0.05 was taken as significant. In the tables above, significant differences versus the corresponding control (vehicle) group are denoted as: *p<0.05, **p<0.01, ***p<0.001.

[3] = tested on: human peripheral blood mononuclear cells (PBMC); assay: TNF production from LPS-treated human PBMC, CBA (Example 5); type: cell-based; details: Table 21
Method: (§1) Peripheral blood was drawn from healthy volunteers (with approval from the relevant ethical committee in Denmark). Heparinized blood was diluted 1/1 v/v with RPMI and were subjected to Ficoll density centrifugation within 2 h of drawing. Plasma was collected from the top from individual donors and was kept on ice until it was used at 2% in the culture medium (autologous culture medium). Isolated PBMC were resuspended in autologous culture medium and seeded in 96-well culture plates with 255.000 cells per well in a total of 200 μl. […] The concentrations used for stimulation were optimized on 3 different donors in initial experiments, for LPS two different concentrations were used to be sure to be on a cytokine level that is possible to modulate. In some experiments PBMC were treated with Dexamethason and Indomethacin alone and together with LPS or LTA as a control on downregulation of inflammatory cytokines. The supernatants were collected after incubation at 37° C. for 24 hours, and stored at −80° C. until cytokine measurement. Viability was measured by Alamar Blue (Biosource, DALL 1100) in all experiments and in some cases also by MTS (Promega) according to manufacturer's instruction and was in some experiments also judged by counting of the cells by a Nucleocounter.
(§2) Cytokine production in supernatants was measured by flow cytometry with a human inflammation cytometric bead array (CBA) according to manufacturer's instructions (BD) on a FACSarray flow cytometer. The following cytokines were measured: IL-8, IL-1β, IL-10, TNF, IL-12 p70, IL-6. In some experiments, cytokines were measured by ELISA kits from R&D systems (IL-10, TNF-α, IL-1β) according to the manufacturer′ instruction.
(§3) Example 5 was carried out essentially as described in Example 4.
(§4) In each table, all samples were tested on the same donor. SD means standard deviation.

[4] = tested on: human peripheral blood mononuclear cells (PBMC); assay: IL-10 production from LPS-treated human PBMC, CBA (Example 5); type: cell-based; details: for IL-10 / IL-10 % of control: Table 22
Method: as §1, §2, §4

[5] = tested on: human peripheral blood mononuclear cells (PBMC); assay: IL-1β production from LPS-treated human PBMC, CBA (Example 5, Table 23); type: cell-based
Method: as §1, §2, §3, §4

human PBMC = assay: Toxicity to human PBMC (Example 5); type: cell-based; details: 40 μg/ml
Method: as §1, §3

[6] = LPS 0.6 ng/ml, test compound 1 μg/ml
[7] = LPS 0.6 ng/ml, test compound 10 μg/ml
[8] = LPS 20 ng/ml, test compound 1 μg/ml
[9] = LPS 20 ng/ml, test compound 10 μg/ml

`C[C@H]1C[C@@H]2[C@H]([C@@H](O)C[C@@]3(C)[C@H]2CC[C@]3(O)C(=O)COC(=O)CCC(=O)O)[C@@]2(C)C=CC(=O)C=C12` [Methylprednisolone 21-hemisuccinate] was tested, and the “Histology Score Distal Colon” value ([1]; 1 mg/kg p.o. daily for 10 days) was 3.70, the “Histology Score Proximal Colon” value ([1]; 1 mg/kg p.o. daily for 10 days) was 2.80* and the DAI score ([1]; Day 1) was 0.00. For the same compound, the DAI score ([1]; Day 2) was 0.10, the DAI score ([1]; Day 3) was 0.00 and the DAI score ([1]; Day 4) was 2.60. It also gave a DAI score ([1]; Day 5) of 2.50, a DAI score ([1]; Day 6) of 2.60 and a DAI score ([1]; Day 7) of 3.10. For the same compound, the DAI score ([1]; Day 8) was 2.50*, the DAI score ([1]; Day 9) was 3.80* and the DAI score ([1]; Day 10) was 4.90**. For the same compound, the “Colon TNF-α concentration” value (TNF-α) was 1833 pg/g tissue, the “Histology Score Distal Colon” value ([2]; 1 mg/kg p.o. once daily) was 3.00*** and the “Histology Score Proximal Colon” value ([2]; 1 mg/kg p.o. once daily) was 1.40. It also gave a DAI score ([2]; 1 mg/kg p.o. once daily, Day 1) of 0.00, a DAI score ([2]; 1 mg/kg p.o. once daily, Day 2) of 0.50 and a DAI score ([2]; 1 mg/kg p.o. once daily, Day 3) of 0.50. The DAI score ([2]; 1 mg/kg p.o. once daily, Day 4) was 0.40, the DAI score ([2]; 1 mg/kg p.o. once daily, Day 5) was 1.10 and the DAI score ([2]; 1 mg/kg p.o. once daily, Day 6) was 3.80. For the same compound, the DAI score ([2]; 1 mg/kg p.o. once daily, Day 7) was 5.90, the DAI score ([2]; 1 mg/kg p.o. once daily, Day 8) was 6.40 and the DAI score ([2]; 1 mg/kg p.o. once daily, Day 9) was 5.60*. The DAI score ([2]; 1 mg/kg p.o. once daily, Day 10) was 5.60*, the “Histology Score Distal Colon” value ([2]; 10 mg/kg p.o. once daily) was 2.70*** and the “Histology Score Proximal Colon” value ([2]; 10 mg/kg p.o. once daily) was 1.40. It also gave a DAI score ([2]; 10 mg/kg p.o. once daily, Day 1) of 0.00, a DAI score ([2]; 10 mg/kg p.o. once daily, Day 2) of 0.30 and a DAI score ([2]; 10 mg/kg p.o. once daily, Day 3) of 0.70. The DAI score ([2]; 10 mg/kg p.o. once daily, Day 4) was 0.80, the DAI score ([2]; 10 mg/kg p.o. once daily, Day 5) was 1.30 and the DAI score ([2]; 10 mg/kg p.o. once daily, Day 6) was 2.00. The DAI score ([2]; 10 mg/kg p.o. once daily, Day 7) was 3.20**, the DAI score ([2]; 10 mg/kg p.o. once daily, Day 8) was 4.80** and the DAI score ([2]; 10 mg/kg p.o. once daily, Day 9) was 5.20*. The DAI score ([2]; 10 mg/kg p.o. once daily, Day 10) was 4.00***.

With “hBD4 variant: consists of amino acids 3-39 of hBD4, SEQ ID NO:5 (ELDRICGYGTARCRKKCRSQEYRIGRCPNTYACCLRK)” the TNF ([3]; 1 μg/ml, LPS 0.6 ng/ml) was 468 pg/mL, the “TNF % of control” value ([3]; 1 μg/ml, LPS 0.6 ng/ml) was 64% and the TNF ([3]; 1 μg/ml, LPS 20 ng/ml) was 778 pg/mL. For the same compound, the “TNF % of control” value ([3]; 1 μg/ml, LPS 20 ng/ml) was 36%, the TNF ([3]; 1 μg/ml, Medium) was 0 pg/mL and the TNF ([3]; 10 μg/ml, LPS 0.6 ng/ml) was 211 pg/mL. For the same compound, the “TNF % of control” value ([3]; 10 μg/ml, LPS 0.6 ng/ml) was 29%, the TNF ([3]; 10 μg/ml, LPS 20 ng/ml) was 139 pg/mL and the “TNF % of control” value ([3]; 10 μg/ml, LPS 20 ng/ml) was 6%. For the same compound, the TNF ([3]; 10 μg/ml, Medium) was 0 pg/mL, the IL-10 ([4]; 1 μg/ml, LPS 0.6 ng/ml) was 90 pg/mL and the “IL-10 % of control” value ([4]; 1 μg/ml, LPS 0.6 ng/ml) was 136%. For the same compound, the “IL-10 % of control” value ([4]; 1 μg/ml, LPS 20 ng/ml) was 157%, the IL-10 ([4]; 1 μg/ml, Medium) was 0 pg/mL and the IL-10 ([4]; 10 μg/ml, LPS 0.6 ng/ml) was 92 pg/mL. The “IL-10 % of control” value ([4]; 10 μg/ml, LPS 0.6 ng/ml) was 139%, the IL-10 ([4]; 10 μg/ml, LPS 20 ng/ml) was 187 pg/mL and the “IL-10 % of control” value ([4]; 10 μg/ml, LPS 20 ng/ml) was 168%. The IL-10 ([4]; 10 μg/ml, Medium) was 0 pg/mL, the “Secretion of IL-10” value ([4]; human PBMC with LPS, summary of Table 22) was “significantly and dose-dependently enhanced” and the IL-1β [5, 6] was 286 pg/mL. For the same compound, the “IL-1β % of control” value [5, 6] was 39%, the IL-1β [5, 7] was 163 pg/mL and the “IL-1β % of control” value [5, 7] was 22%. The IL-1β [5, 8] was 1004 pg/mL, the “IL-1β % of control” value [5, 8] was 40% and the IL-1β [5, 9] was 463 pg/mL. The “IL-1β % of control” value [5, 9] was 18%, the IL-1β ([5]; Medium (no LPS), test compound 1 μg/ml) was 0 pg/mL and the IL-1β ([5]; Medium (no LPS), test compound 10 μg/ml) was 0 pg/mL. For the same compound, the “toxicity to the cells” value (human PBMC) was “toxic to the cells”.
